Results taken from US20090068290A1, “BIFEPRUNOX DOSES FOR TREATING SCHIZOPHRENIA” (priority 2006, published 2009).

What was measured:
[1] = tested on: adult subjects with schizophrenia; test: BPRS total score, Clinical Study Three; assay type: in vivo, human
Description: SECONDARY OBJECTIVES To assess the efficacy of bifeprunox in treating schizophrenia using the Positive Symptom sub-scale score of the PANSS, the Negative Symptom sub-scale score of the PANSS, the General Psychopathology sub-scale of the PANSS, Brief Psychiatric Rating Scale (BPRS) total score derived from the PANSS, BPRS psychosis score derived from the PANSS, the Clinical Global Impression Severity of Illness score (CGI-S), the Clinical Global Impression Improvement score (CGI-I), CGI-I responder rate, PANSS responder rate based on the PANSS total score, Calgary Depression Scale for Schizophrenia (CDSS), and Subject Satisfaction rating.
There were four treatment arms in this study, approximately 144 subjects per arm. […] After completing the Single-Blind Placebo Lead-in Period of at least three days, bifeprunox-treated subjects were titrated from 0.25 mg up to 20 mg/day or 30 mg/day according to a standardized titration scheme over a seven- or eight-day period, respectively. When the assigned dose was reached, subjects were maintained at that dose for the remainder of the six week treatment period. […] Subjects were hospitalized (if not already inpatients) after eligibility for study entry was verified, starting from the Screening Visit until at least 10 days after Baseline. Subjects could be hospitalized longer than 10 days if considered medically necessary by the Investigator. Rating scale assessments for efficacy and abnormal movement disorders were done weekly except for Week 5. […] Subject satisfaction with study medication was assessed at Week 6.

[2] = tested on: adult subjects with schizophrenia; test: Adverse events (TEAE, SAE, special interest, discontinuation, EPS-related TEAE), Clinical Study Three; details: for safety and tolerability: bifeprunox 20 mg and 30 mg, 6 weeks
Experimental: There were four treatment arms in this study, approximately 144 subjects per arm. […] After completing the Single-Blind Placebo Lead-in Period of at least three days, bifeprunox-treated subjects were titrated from 0.25 mg up to 20 mg/day or 30 mg/day according to a standardized titration scheme over a seven- or eight-day period, respectively. When the assigned dose was reached, subjects were maintained at that dose for the remainder of the six week treatment period. […] Subjects were hospitalized (if not already inpatients) after eligibility for study entry was verified, starting from the Screening Visit until at least 10 days after Baseline. Subjects could be hospitalized longer than 10 days if considered medically necessary by the Investigator. Rating scale assessments for efficacy and abnormal movement disorders were done weekly except for Week 5. Safety assessments were performed at Screening, during treatment and at the end of the study. Subject satisfaction with study medication was assessed at Week 6. Samples of whole blood were obtained at Weeks 2, 4, and 6 for determination of bifeprunox in plasma.
EPS were assessed using treatment-emergent adverse events such as akathisia, dyskinesia, parkinsoniam, etc. and/or formal rating scales such as SAS, BAS, and/or AIMS.

[3] = Bifeprunox 30 mg, Week 3, LOCF, ITT population
[4] = Bifeprunox 30 mg, Week 4, LOCF, ITT population
[5] = Bifeprunox 30 mg, Week 6/Endpoint, LOCF, ITT population

**Q.** With `O=c1[nH]c2cccc(N3CCN(Cc4cccc(-c5ccccc5)c4)CC3)c2o1` [Bifeprunox, 7-[4-([1,1′-biphenyl]-3-ylmethyl)-1-piperazinyl]-2(3H)-benzoxazolone] as the molecule, how does the “Change from Baseline in BPRS Total Score, Mean (SD)” value (“Change from Baseline … (SD)” for short) [1, 3] read?
**A.** Its value is −6.7 (10.7).

**Q.** What about the “Change from Baseline in BPRS Total Score, Median” value (“Change from Baseline … Median” below) [1, 3] of the same molecule?
**A.** The value was −7.

**Q.** What about the “Change from Baseline … (SD)” value [1, 4] of the same molecule?
**A.** The value was −7.3 (10.9).

**Q.** And the “Change from Baseline … Median” value [1, 4]?
**A.** Its value is −8.

**Q.** And the “Change from Baseline … (SD)” value [1, 5]?
**A.** The value was −7.9 (12.0).

**Q.** What about the “Change from Baseline … Median” value [1, 5] of the same molecule?
**A.** The value was −9.

**Q.** And the “Change from Baseline in BPRS Total Score, Trt Effect (bifeprunox—placebo)” value [1, 5]?
**A.** The value was −1.1.

**Q.** And the “mean change (SD) from Baseline to Endpoint in BPRS total score” value ([1]; bifeprunox 20 mg, LOCF, ITT)?
**A.** Its value is −8.5 (11.9).

**Q.** What about the “BPRS total score, treatment effect (bifeprunox—placebo)” value ([1]; bifeprunox 30 mg, Endpoint LOCF) of the same molecule?
**A.** The value was −1.1.

**Q.** And the “AKATHISIA, %” value ([2]; BX 20 mg)?
**A.** The value was 3%.

**Q.** And the “CONVULSION, %” value ([2]; BX 20 mg)?
**A.** The value was 1%.

**Q.** And the “DIZZINESS, %” value ([2]; BX 20 mg)?
**A.** The value was 8%.

**Q.** What about the “DYSKINESIA, %” value ([2]; BX 20 mg) of the same molecule?
**A.** The value was 1%.

**Q.** And the “EXTRAPYRAMIDAL DISORDER, %” value ([2]; BX 20 mg)?
**A.** Its value is 3%.

**Q.** And the “HEADACHE, %” value ([2]; BX 20 mg)?
**A.** Its value is 19%.

**Q.** What about the “LOSS OF CONSCIOUSNESS, %” value ([2]; BX 20 mg) of the same molecule?
**A.** The value was 1 (<1%).

**Q.** And the “MYALGIA, %” value ([2]; BX 20 mg)?
**A.** Its value is 1 (<1%).

**Q.** And the “NECK PAIN, %” value ([2]; BX 20 mg)?
**A.** Its value is 1%.

**Q.** What about the “NERVOUS SYSTEM DISORDERS, %” value ([2]; BX 20 mg) of the same molecule?
**A.** The value was 38%.

**Q.** What about the “PAIN IN EXTREMITY, %” value ([2]; BX 20 mg) of the same molecule?
**A.** Its value is 1 (<1%).

**Q.** And the “SEDATION, %” value ([2]; BX 20 mg)?
**A.** Its value is 5%.

**Q.** What about the “SINUS HEADACHE, %” value ([2]; BX 20 mg) of the same molecule?
**A.** Its value is 1 (<1%).

**Q.** What about the “SOMNOLENCE, %” value ([2]; BX 20 mg) of the same molecule?
**A.** Its value is 3%.

**Q.** What about the “TARDIVE DYSKINESIA, %” value ([2]; BX 20 mg) of the same molecule?
**A.** The value was 1 (<1%).

**Q.** What about the “TREMOR, %” value ([2]; BX 20 mg) of the same molecule?
**A.** The value was 1%.

**Q.** What about the “AKATHISIA, %” value ([2]; BX 40 mg) of the same molecule?
**A.** Its value is 3%.

**Q.** And the “CYST, %” value ([2]; BX 40 mg)?
**A.** The value was 1 (<1%).

**Q.** What about the “DIZZINESS, %” value ([2]; BX 40 mg) of the same molecule?
**A.** The value was 10%.

**Q.** What about the “DYSKINESIA, %” value ([2]; BX 40 mg) of the same molecule?
**A.** Its value is 1%.

**Q.** And the “EXTRAPYRAMIDAL DISORDER, %” value ([2]; BX 40 mg)?
**A.** Its value is 1 (<1%).

**Q.** What about the “HEADACHE, %” value ([2]; BX 40 mg) of the same molecule?
**A.** Its value is 19%.

**Q.** What about the “MUSCULOSKELETAL STIFFNESS, %” value ([2]; BX 40 mg) of the same molecule?
**A.** Its value is 1 (<1%).

**Q.** And the “MYALGIA, %” value ([2]; BX 40 mg)?
**A.** Its value is 1%.

**Q.** What about the “NEOPLASMS BENIGN, MALIGNANT AND UNSPECIFIED (INCL CYSTS AND POLYPS), %” value ([2]; BX 40 mg) of the same molecule?
**A.** Its value is 1 (<1%).

**Q.** What about the “NERVOUS SYSTEM DISORDERS, %” value ([2]; BX 40 mg) of the same molecule?
**A.** Its value is 37%.

**Q.** And the “NEUROLOGICAL SYMPTOM, %” value ([2]; BX 40 mg)?
**A.** Its value is 1 (<1%).

**Q.** What about the “PAIN IN JAW, %” value ([2]; BX 40 mg) of the same molecule?
**A.** The value was 1 (<1%).

**Q.** And the “PARAESTHESIA, %” value ([2]; BX 40 mg)?
**A.** Its value is under 1%.

**Q.** What about the “SEDATION, %” value ([2]; BX 40 mg) of the same molecule?
**A.** The value was 7%.

**Q.** And the “SOMNOLENCE, %” value ([2]; BX 40 mg)?
**A.** Its value is 3%.

**Q.** What about the “SYNCOPE VASOVAGAL, %” value ([2]; BX 40 mg) of the same molecule?
**A.** The value was 1%.

**Q.** And the “TREMOR, %” value ([2]; BX 40 mg)?
**A.** Its value is 3%.

**Q.** What about the “incidence of dizziness (TEAE of special interest)” value ([2]; Bifeprunox 30 mg) of the same molecule?
**A.** The value was 10%.

**Q.** And the “orthostatic hypotension (special interest TEAE)” value ([2]; Bifeprunox 30 mg)?
**A.** The value was “three subjects”.

**Q.** What about the “subjects with at least one AE that led to study termination” value ([2]; Bifeprunox 30 mg) of the same molecule?
**A.** Its value is 7%.

**Q.** And the “subjects with at least one SAE” value ([2]; Bifeprunox 30 mg)?
**A.** Its value is 8%.

**Q.** And the “subjects with at least one TEAE” value ([2]; Bifeprunox 30 mg)?
**A.** The value was 77%.

**Q.** And the “subjects with at least one special interest TEAE” value ([2]; Bifeprunox 30 mg)?
**A.** Its value is 13%.

**Q.** And the “syncope vasovagal (special interest TEAE)” value ([2]; Bifeprunox 30 mg)?
**A.** The value was “two subjects”.

**Q.** What about the “incidence of dizziness (TEAE of special interest)” value ([2]; bifeprunox 20 mg) of the same molecule?
**A.** The value was 8%.

**Q.** What about the “subjects with at least one AE that led to study termination” value ([2]; bifeprunox 20 mg) of the same molecule?
**A.** The value was 8%.

**Q.** What about the “subjects with at least one SAE” value ([2]; bifeprunox 20 mg) of the same molecule?
**A.** The value was 10%.

**Q.** And the “subjects with at least one TEAE” value ([2]; bifeprunox 20 mg)?
**A.** Its value is 82%.

**Q.** What about the “subjects with at least one special interest TEAE” value ([2]; bifeprunox 20 mg) of the same molecule?
**A.** Its value is 11%.

**Q.** What about the safety and tolerability [2] of the same molecule?
**A.** The safety and tolerability was “well tolerated at both dose levels”.

**Q.** What about the safety and tolerability ([2]; listed as bifeprunox) of the same molecule?
**A.** Its safety and tolerability is “safe and well tolerated”.

**Q.** What about the “subjects who discontinued study medication due to an AE” value ([2]; bifeprunox groups (20, 30 mg), each) of the same molecule?
**A.** Its value is 8%.
